Reference: patent US20230277483A1, “COMPOSITIONS AND METHODS TO TREAT INFLAMMATION” (University of Iowa Research Foundation, priority 2022, published 2023)

Tested on: DIO-mice (C57BL/6J on 60% kCal high-fat diet)
Test: Diet-induced obesity (DIO) mouse model, IP HCA
Format: in vivo
Protocol: Animal care and experimental procedures were performed with approval from the University of Iowa's Institutional Animal Care and Use Committee. Animals received humane care in compliance with the Guide for the Care and Use of Laboratory Animals (National Academies Press, 2011) and with the Principles of Laboratory Animal Care formulated by the National Society for Medical Research. C57BL/6J mice (The Jackson Laboratory, 000664) were kept on a 12-hour light/dark cycle. Mice used to generate the DIO model were placed on a 60% kCal high-fat diet (HFD, Research Diets, D12492) immediately after weaning (i.e., at 3 weeks of age). After 16 weeks, lean and DIO-mice were intraperitoneally (IP) injected with 0.5 uM HCA or PBS control every other day for three weeks. Body weight was measured weekly. All tissues were harvested, frozen in liquid nitrogen, and kept at −80° C. until processed.
Total RNA was isolated using TRIzol reagent (Invitrogen, 15-596-018) and reverse transcribed into cDNA using the iScript cDNA synthesis kit (Bio-Rad, 1708890). Quantitative real-time RT-PCR analysis was performed using SYBR Green (Invitrogen, KCQS00).
Proteins were extracted from cells or tissues and subjected to SDS-polyacrylamide gel electrophoresis, as previously described (Yang et al., 2015). Membranes were incubated with anti-p-AKT (Ser473, Cell Signaling, 9271); anti-AKT1 (H-136, Santa Cruz, sc-8312) or anti-ACTB (H-300, Santa Cruz, sc-10731) at 1:1000 and then incubated with the appropriate secondary antibody conjugated with horseradish peroxidase (1:5000, Santa Cruz, sc-2005 or 1:5000, Cell Signaling Technology, 7074S). Signal was detected using the ChemiDoc Touch Imaging System (Bio-Rad), and densitometric analyses of western blot images were performed using Image Lab software (Bio-Rad).
For immunohistochemistry, tissues were fixed with 4% PFA and sectioned at 5 μm thick, followed by deparaffinization and rehydration processes. Tissue sections were stained using H&E. The images were observed under a Nikon microscope (10×).
Blood samples were centrifuged (4° C., 5000 g, 30 min) to obtain serum. Ten microliters of serum per sample were required for each index analysis. Serum alanine aminotransferase (ALT) and aspartate aminotransferase (AST) were measured by commercial kits. Serum IL-1β, IL-6 and free fatty acid (FFA) content were measured by ELISA (Il-1beta, Biolegend, Cat No. 432604; Il6) or a FFA fluorometric kit (Cayman Chemical, No. 700310), respectively, and then normalized to total protein (BCA).
Whole-body energy expenditure and body composition: Respiratory exchange ratio (RER) and locomotor activity were monitored using a Comprehensive Lab Animal Monitoring System (CLAMS, Columbus Instruments) at the Fraternal Order of Eagles Metabolic Phenotypic Core. Body composition was measured by using Bruker Minispecs (LF50).
Animals were fasted for 6 hours prior to ITT. Insulin tolerance was tested by measuring glucose concentration at different time points after intraperitoneal (IP) insulin injection (0.5 U/kg body weight; Humulin R) (Qian et al., 2018).

O=C(O)CCCCCO [HCA, 6-hydroxycaproic acid]
liver expression of Atg1 and Cd36 (HCA vs HFD alone): increased expression
liver expression of Hsl (HCA vs HFD alone): significantly reduced
Serum free fatty acid (FFA) content (HCA vs HFD controls): reduced circulating levels
fasting glucose (HFD-fed, HCA-treated): HFD-mediated effects were reduced
pAKT in eWAT (insulin signaling) (HFD-fed, HCA-treated): increased pAKT
insulin tolerance (ITT) (HFD-fed, HCA-treated, insulin 0.5 U/kg IP): HFD-mediated effects were reduced
lean mass (HFD, 0.5 uM HCA IP every other day for three weeks): increased
BW gain (HFD, 0.5 uM HCA IP every other day for three weeks, vs HFD group): significantly reduced
eWAT RNA-seq: chemokine signaling and leukocyte migration (HFD, HCA): downregulated
eWAT RNA-seq: fatty acid metabolism, oxidation and absorption, PPAR gamma and AMPK signaling (HFD, HCA): significantly increased
liver Il1b transcript levels (HFD, HCA): significantly reduced
serum IL-6, IL-1β, and leptin (HFD, HCA): reduced
eWAT Adipoq and Ppargamma levels (HFD, HCA-treated): levels increased
eWAT mRNA expression of Il6, Nos2 and Lep (HFD, HCA-treated): significantly reduced
serum ALT levels (HFD, HCA-treated): reduced
morphology of liver, iWAT and eWAT (H&E) (HFD, HCA-treated vs HFD alone): showed improvement
activity (locomotor) (HFD, HCA-treated, CLAMS): increased activity
respiratory exchange ratio (RER) (HFD, HCA-treated, CLAMS): shift in respiratory exchange ratio (RER) towards increased carbohydrate metabolism
eWAT Cd36 and Gpr81 (compared to HFD controls): induced
GPR137B, GPR176, GPR65, GPR85, and FABP7 in WAT (mRNA-seq) (obese mice treated with HCA): upregulation
PPARγ in white adipose tissues (WAT) (obese mice, systemic administration of HCA): upregulation
